“And” between values parts separate entries of the source, which are not always exact repeats. Equal entries are not always repeated.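 Results reflect a 48-hour exposure of cells in 96-well plates to compound at five concentrations. At the GI50, growth is halved. At the TGI there is no net growth.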 Some results are limits rather than exact numbers.

Among the data in PubChem BioAssay (NCI) are GI50 and TGI values, retold here.

Some test systems named below: RPMI-8226 leukemia; HOP-62 NSCLC; OVCAR-3 ovarian; SF-268 CNS; 786-0 renal; TK-10 renal; SK-MEL-5 melanoma; SK-MEL-28 melanoma; SR leukemia; LOX IMVI melanoma.
Holding throughout (assay): DTP human tumour cell line panel, 48 h

As to `O=C1/C(=C/c2ccc(C(F)(F)F)cc2)COc2ccc(O)cc21`, the GI50 (in general, the concentration that inhibits growth by half) in the assay on RPMI-8226 leukemia was 0.29 µM; in the assay on HOP-62 NSCLC, 12.8 µM; in the assay with OVCAR-3 ovarian, 1.7 µM; in the assay on SF-268 CNS, 2.75 µM; with 786-0 renal it was 1.91 µM; with TK-10 renal, 3.7 µM. Besides, the GI50 in the assay with SK-MEL-5 melanoma was 1.97 µM; in the assay with SK-MEL-28 melanoma, 1.79 µM; in the assay on SR leukemia, 1.21 µM; with LOX IMVI melanoma, 1.69 µM. Moreover, the TGI (in general, the concentration giving total growth inhibition) in the assay on RPMI-8226 leukemia was 0.885 µM; in the assay with HOP-62 NSCLC, 25.4 µM; with OVCAR-3 ovarian it was 3.09 µM; in the assay with SF-268 CNS it was 13.6 µM; in the assay on 786-0 renal, 4.17 µM; with TK-10 renal, 14.3 µM. The TGI in the assay on SK-MEL-5 melanoma is 4.38 µM; in the assay on SK-MEL-28 melanoma, 3.8 µM; in the assay with SR leukemia it was 10.6 µM; with LOX IMVI melanoma it was 3.11 µM.
Consider `CN1CCN(c2ccc([N+](=O)[O-])c3no[n+]([O-])c23)CC1`, for which the GI50 with RPMI-8226 leukemia is 0.436 µM; with HOP-62 NSCLC it was 0.318 µM; in the assay on OVCAR-3 ovarian, 0.241 µM; in the assay with SF-268 CNS, 0.198 µM; with 786-0 renal it was 0.298 µM; with TK-10 renal, 0.454 µM. Further, the GI50 in the assay with SK-MEL-5 melanoma is 1.04 µM; in the assay on SK-MEL-28 melanoma, 0.991 µM; with SR leukemia, 0.0201 µM; in the assay with LOX IMVI melanoma, 0.157 µM. For the same compound, the TGI with RPMI-8226 leukemia is 0.795 µM and 2.43 µM; in the assay on HOP-62 NSCLC, 1.26 µM and 1.39 µM; in the assay on OVCAR-3 ovarian it was 1.29 µM and 0.753 µM; in the assay with SF-268 CNS it was 0.68 µM and 1.12 µM; in the assay with 786-0 renal, 0.923 µM and 1.15 µM; in the assay with TK-10 renal, 2.33 µM and 1.49 µM. Moreover, the TGI in the assay on SK-MEL-5 melanoma is 2.91 µM and 2.51 µM; in the assay on SK-MEL-28 melanoma, 5.59 µM and 2.67 µM; with SR leukemia, 0.0274 µM and 0.0936 µM; in the assay with LOX IMVI melanoma it was 1.14 µM and 0.612 µM.
Consider `CN(C)CCC(=O)NCc1c2nc3ccccc3nc2n2ccccc12`, for which the GI50 in the assay on RPMI-8226 leukemia is 18.5 µM; in the assay with HOP-62 NSCLC, 24 µM; with OVCAR-3 ovarian it was above 100 µM; in the assay with SF-268 CNS it was 41.5 µM; with 786-0 renal it was 19 µM; with TK-10 renal it was 16 µM. Also, the GI50 with SK-MEL-5 melanoma was 16.8 µM; with SK-MEL-28 melanoma, 83.9 µM; in the assay with SR leukemia, 16.9 µM; in the assay with LOX IMVI melanoma, 21 µM. The TGI was above 100 µM with RPMI-8226 leukemia; above 100 µM in the assay with HOP-62 NSCLC; above 100 µM in the assay on OVCAR-3 ovarian; above 100 µM with SF-268 CNS; 45.9 µM in the assay on 786-0 renal; 47.6 µM in the assay on TK-10 renal. Further, the concentration for total growth inhibition (TGI) in the assay on SK-MEL-5 melanoma is 52.8 µM; in the assay with SK-MEL-28 melanoma, above 100 µM; in the assay on SR leukemia it was 41.8 µM; in the assay with LOX IMVI melanoma it was 40.4 µM.
Take `NC(=O)N/N=C1/CCCC/C1=C\c1ccccc1`: the TGI in the assay with RPMI-8226 leukemia, in the assay with HOP-62 NSCLC, in the assay on OVCAR-3 ovarian, with SF-268 CNS, in the assay on 786-0 renal and with TK-10 renal was above 100 µM in each case. Also, the TGI in the assay with SK-MEL-5 melanoma, in the assay with SK-MEL-28 melanoma, with SR leukemia and with LOX IMVI melanoma was above 100 µM throughout.
`Nc1n[n+]([O-])c2cnccc2[n+]1[O-]`: the total growth inhibition concentration (TGI) with RPMI-8226 leukemia, with HOP-62 NSCLC, in the assay with OVCAR-3 ovarian, with SF-268 CNS, with 786-0 renal and in the assay on TK-10 renal was above 100 µM each time. Further, the total growth inhibition concentration (TGI) in the assay with SK-MEL-5 melanoma is 30 µM; with SK-MEL-28 melanoma, above 100 µM; in the assay on SR leukemia it was above 100 µM; in the assay on LOX IMVI melanoma, above 100 µM.
On to `CO[C@H]1/C=C/C[C@H](C)[C@@H](C)S(=O)(=O)NC(=O)c2ccc3c(c2)N(C[C@@H]2CC[C@H]21)C[C@@]1(CCCc2cc(Cl)ccc21)CO3`, for which the GI50 in the assay with RPMI-8226 leukemia is 0.132 µM; in the assay with HOP-62 NSCLC it was 2.35 µM; in the assay with OVCAR-3 ovarian it was 1.9 µM; with SF-268 CNS, 3.6 µM; with 786-0 renal, 2.9 µM; with TK-10 renal, 2.8 µM. The GI50 was 1.61 µM in the assay with SK-MEL-5 melanoma, 2.61 µM with SK-MEL-28 melanoma, 0.67 µM in the assay on SR leukemia and 1.84 µM with LOX IMVI melanoma. The TGI worked out at 0.534 µM in the assay on RPMI-8226 leukemia; 6.2 µM with HOP-62 NSCLC; 3.75 µM with OVCAR-3 ovarian; 14 µM with SF-268 CNS; 8.27 µM with 786-0 renal; 11.1 µM with TK-10 renal. In addition, the concentration for total growth inhibition (TGI) with SK-MEL-5 melanoma was 3.15 µM; with SK-MEL-28 melanoma, 8.04 µM; in the assay with SR leukemia, 12.2 µM; with LOX IMVI melanoma, 3.41 µM.
With `C=CC1=C(C)C(Cc2[nH]c(/C=c3\[nH]/c(=C/C4=NC(=O)C(C)/C4=C\C)c(C)c3CCC(=O)O)c(CCC(=O)OC)c2C)NC1=O` (stereo not given), the GI50 with RPMI-8226 leukemia was 23.9 µM; in the assay on HOP-62 NSCLC, 26.4 µM; in the assay with OVCAR-3 ovarian, 20.1 µM; in the assay with SF-268 CNS it was 21.2 µM; in the assay on 786-0 renal, 22 µM; with TK-10 renal, 46.4 µM. Besides, the GI50 with SK-MEL-5 melanoma was 19.9 µM; with SK-MEL-28 melanoma, 14.8 µM; in the assay with SR leukemia it was 20 µM; in the assay with LOX IMVI melanoma, 18.6 µM. Moreover, the total growth inhibition concentration (TGI) in the assay on RPMI-8226 leukemia is 59.8 µM; in the assay on HOP-62 NSCLC it was 62.4 µM; in the assay on OVCAR-3 ovarian, 39.4 µM; in the assay on SF-268 CNS, 59.5 µM; in the assay on 786-0 renal, 62.5 µM; in the assay on TK-10 renal, above 100 µM. Also, the concentration for total growth inhibition (TGI) in the assay on SK-MEL-5 melanoma was found to be 37.4 µM; in the assay on SK-MEL-28 melanoma, 31.9 µM; with SR leukemia, 46 µM; in the assay on LOX IMVI melanoma it was 37.4 µM.
